Results as given in US9650332B1, “Prodrug of probucol and method for preparing the same” (priority 2016, dated 2017).

Assay: Pharmacokinetic studies of the prodrugs of probucol in rats (oral gavage, plasma LC/MS/MS)
Type: in vivo
Details: male, Sprague Dawley, rat, 20 mg/kg prodrug by oral gavage, overnight fasting, analyte: prodrug; for AUC(0-t): read-out: AUC0-t of the prodrug in blood; for Cmax: read-out: Cmax of the prodrug in blood; for Tmax: read-out: tmax of the prodrug in blood
Method: Four different kinds of probucol's prodrugs were prepared based on the example 1, 2, 3 and 4 to evaluate their pharmacodynamic and pharmacokinetic characteristics in rats.
Three Sprague Dawley Male Rats were used in each experiment for each prodrug. The laboratory animal models are provided by Shanghai Super-B&K laboratory animal Corp. Ltd. (No. Of animal license SYXK(HU)2008-0016).
Weighed 20 mg sample and dissolved it with 1 ml ethanol. Then, in turn, added 1 ml Solutol HS15 and 8 ml pH4.63 acetate buffer to make the final solution with the concentration of 2 mg/ml. The left soup were saved to run quantitative analysis.
Three Sprague Dawley male rats were given the dose of […] (volume: 10 ml/kg) drugs by oral gavage under the condition of overnight fasting.
Blood (volume: 0.1 ml) was drawn at 0.5, 1.0, 2.0, 4.0, 6.0, 8.0, 24.0 hours pre-dose and post-dose respectively to all animal subjects. Saved the blood samples in heparinized tubes and then centrifuged them for 10 minutes at […] at 4° C. The separated plasma was stored at −20° C. All the process including blood collection and blood analysis should be conducted in low temperatures. Standard meals were provided after 2 hours of dosing.
API 4000 QTRAP LC/MS/MS (Applied Biosystems Corporation, US)
LC-20AD HPLC system (Shimadzu Corporation, Japan)
The prodrug and metabolite probucol were measured at the same time. Took 25 ul rat plasma that drawn at different time points after dosing, and then added 50 ul internal standard YX1162 (200 ng/ml, prepared by acetonitrile) and 175 ul acetonitrile, vortex mixed for 3 minutes, and then centrifuged at 13500 rpm for 10 minutes. Took 10 ul supernatant to run LC/MS/MS analysis.
The prodrug and metabolite probucol were measured at the same time. Took 25 ul rat blank plasma, then added 25 ul solution of standard series to make the drug concentration 1.00, 2.00, 5.00, 25.0, 100, 500, 2000, 20000 and 40000 ng/ml. Next, added 50 ul internal standard YX1162 (200 ng/ml, prepared by acetonitrile) and 150 ul acetonitrile, then followed the same protocol shown in 3.4.
Set plasma concentration as X-axis and the ratio of chromatographic peak areas for sample and internal standard as Y-axis, then used weighted least square method (w=1/x^2) to conduct linear regression analysis.

Q: Which AUC(0-t) does the source give for `CCOC(=O)OCOc1c(C(C)(C)C)cc(SC(C)(C)Sc2cc(C(C)(C)C)c(O)c(C(C)(C)C)c2)cc1C(C)(C)C` [Example 1] here?
A: The AUC(0-t) was 758 ± 204 ng·h/mL.

Q: What about the Cmax of the same molecule?
A: Its Cmax is 218 ± 26 ng/mL.

Q: What about the Tmax of the same molecule?
A: Its Tmax is 2.17 ± 1.31 h.

Q: For `CCOC(=O)OC(C)Oc1c(C(C)(C)C)cc(SC(C)(C)Sc2cc(C(C)(C)C)c(O)c(C(C)(C)C)c2)cc1C(C)(C)C` (stereo not drawn) [Example 2], which AUC(0-t) is on record?
A: Its AUC(0-t) is 1070 ± 404 ng·h/mL.

Q: What about the Cmax of the same molecule?
A: The Cmax was 268 ± 56 ng/mL.

Q: What about the Tmax of the same molecule?
A: Its Tmax is 2.37 ± 1.41 h.
